Measurements from ChEMBL document CHEMBL1136500, “1,3-dihydrobenzo[c]furan nucleoside analogues: additional studies of the thymine derivative” (Bioorg Med Chem Lett, 2003).
Calls of active or inactive are those of the source. The rule behind the calls is not given here.

Legend:
[1] = molecular target: Human immunodeficiency virus type 1 reverse transcriptase (Human immunodeficiency virus 1) (UniProt Q72547); assay: Inhibitory activity against human immunodeficiency virus-1 reverse transcriptase (HIV-1 RT) at a concentration up to 100 uM; IA-Inactive
[2] = Half life at pH 2.0; type: ADME; details: buffer
[3] = Half life at pH 7.3; type: ADME; details: buffer
[4] = Half life at pH 1.2; type: ADME; details: buffer
[5] = molecular target: Human immunodeficiency virus type 1 reverse transcriptase (Human immunodeficiency virus 1) (UniProt Q72547); assay: Inhibitory activity against human immunodeficiency virus-1 reverse transcriptase (HIV-1 RT)
[6] = Partition coefficient (logP); type: physicochemical; details: octanol/water
[7] = molecular target: Human immunodeficiency virus type 1 reverse transcriptase (Human immunodeficiency virus 1) (UniProt Q72547); assay: Inhibitory activity against human immunodeficiency virus-1 reverse transcriptase (HIV-1 RT) at a concentration up to 10 uM; IA=Inactive

Activity [1]	half-life [2] [days]	half-life [3] [days]	half-life [4] [days]	IC90 [5] [nM]	logP [6]	Activity [7]	SMILES
inactive							Cc1cn([C@@H]2O[C@H](COP(=O)(O)OP(=O)(O)OP(=O)(O)O)c3ccccc32)c(=O)[nH]c1=O
	5	6	3	100	-0.77		Cc1cn([C@H]2C=C[C@@H](CO)O2)c(=O)[nH]c1=O [STAVUDINE]
	31	34	18		0.55	inactive	Cc1cn([C@@H]2O[C@H](CO)c3ccccc32)c(=O)[nH]c1=O
